In patent US11331369B2, “Endoparasitic depsipeptides” (Zoetis Services LLC, priority 2017, dated 2022) one finds minimal effective concentration data, which are given here for five compounds.

For assay [1], the system named is 4th stage larvae (L4) of Dirofilaria immitis. The assay can be described thus: Dirofilaria immitis, L4 Stage (DiL4) In Vitro Assay. The format is cell-based. Conditions: Dirofilaria immitis, 72 h, read-out: DiL4 Minimum Effective Dose (MED), approximately 72 hours incubation; L4 larvae assessed for survival or paralysis.
In assay [2] the test system is third stage larvae of Haemonchus contortus. Description: Haemonchus contortus L3 (HcL3) Assay. Type of assay: cell-based. Conditions: 96 h, read-out: HcL3 Minimum Effective Dose (MED).

As for `Cc1nn(Cc2ccc(C[C@H]3OC(=O)[C@H](CC(C)C)N(C)C(=O)[C@@H](C)OC(=O)[C@H](CC(C)C)N(C)C(=O)[C@@H](Cc4ccc(Cn5nc(C)c(O)c5C)cc4)OC(=O)[C@H](CC(C)C)N(C)C(=O)[C@@H](C)OC(=O)[C@H](CC(C)C)N(C)C3=O)cc2)c(C)c1O` [Example 1b-16, (3S,6R,9S,12R,15S,18R,21S,24R)-6,18-bis({4-[(4-hydroxy-3,5-dimethyl-1H-pyrazol-1-yl)methyl]phenyl}methyl)-4,10,12,16,22,24-hexamethyl-3,9,15,21-tetrakis(2-methylpropyl)-1,7,13,19-tetraoxa-4,10,16,22-tetraazacyclotetracosan-2,5,8,11,14,17,20,23-octaone], the minimal effective concentration in assay [1] was 0.0001 to 0.001 µM; in assay [2], 1 to 10 µM.
For `CC(C)C[C@H]1C(=O)O[C@H](Cc2ccc(Cn3cc(F)cn3)cc2)C(=O)N(C)[C@@H](CC(C)C)C(=O)O[C@H](C)C(=O)N(C)[C@@H](CC(C)C)C(=O)O[C@H](Cc2ccc(Cn3cc(F)cn3)cc2)C(=O)N(C)[C@@H](CC(C)C)C(=O)O[C@H](C)C(=O)N1C` [Example 1b-17, (3S,6R,9S,12R,15S,18R,21S,24R)-6,18-bis(4-((4-fluoro-1H-pyrazol-1-yl)methyl)benzyl)-3,9,15,21-tetraisobutyl-4,10,12,16,22,24-hexamethyl-1,7,13,19-tetraoxa-4,10,16,22-tetraazacyclotetracosan-2,5,8,11,14,17,20,23-octaone] the same measures were 0.0001 to 0.001 µM and 1 to 10 µM.
Take `C#Cc1cnn(Cc2ccc(C[C@H]3OC(=O)[C@H](CC(C)C)N(C)C(=O)[C@@H](C)OC(=O)[C@H](CC(C)C)N(C)C(=O)[C@@H](Cc4ccc(Cn5cc(C#C)cn5)cc4)OC(=O)[C@H](CC(C)C)N(C)C(=O)[C@@H](C)OC(=O)[C@H](CC(C)C)N(C)C3=O)cc2)c1` [Example 1b-32, (3S,6R,9S,12R,15S,18R,21S,24R)-6,18-bis({4-[(4-ethynyl-1H-pyrazol-1 yl)methyl]phenyl}methyl)-4,10,12,16,22,24-hexamethyl-3,9,15,21-tetrakis(2-methylpropyl)-1,7,13,19-tetraoxa-4,10,16,22-tetraazacyclotetracosan-2,5,8,11,14,17,20,23-octaone]: the minimal effective concentration lay in the range of 0.0001 to 0.001 µM in assay [1] and 10 to 100 µM in assay [2].
As for `CC(C)C[C@H]1C(=O)O[C@H](Cc2ccc(Cn3nc(C#N)cc3C#N)cc2)C(=O)N(C)[C@@H](CC(C)C)C(=O)O[C@H](C)C(=O)N(C)[C@@H](CC(C)C)C(=O)O[C@H](Cc2ccc(Cn3nc(C#N)cc3C#N)cc2)C(=O)N(C)[C@@H](CC(C)C)C(=O)O[C@H](C)C(=O)N1C` [Example 1b-66, 1,1′-(((((2R,5S,8R,11S,14R,17S,20R,23S)-5,11,17,23-tetraisobutyl-4,8,10,16,20,22-hexamethyl-3,6,9,12,15,18,21,24-octaoxo-1,7,13,19-tetraoxa-4,10,16,22-tetraazacyclotetracosane-2,14-diyl)bis(methylene))bis(4,1-phenylene))bis(methylene))bis(1H-pyrazole-3,5-dicarbonitrile)], the results for the minimal effective concentration in assay [1] and in assay [2] were no more than 0.0001 µM and no more than 1 µM, respectively.
`CC(C)C[C@H]1C(=O)O[C@H](Cc2ccc(Cn3cc(-c4ccncn4)cn3)cc2)C(=O)N(C)[C@@H](CC(C)C)C(=O)O[C@H](C)C(=O)N(C)[C@@H](CC(C)C)C(=O)O[C@H](Cc2ccc(Cn3cc(-c4ccncn4)cn3)cc2)C(=O)N(C)[C@@H](CC(C)C)C(=O)O[C@H](C)C(=O)N1C` [Example 1b-86, (3S,6R,9S,12R,15S,18R,21S,24R)-3,9,15,21-tetraisobutyl-4,6,10,16,18,22-hexamethyl-12,24-bis(4-((4-(pyrimidin-4-yl)-1H-pyrazol-1-yl)methyl)benzyl)-1,7,13,19-tetraoxa-4,10,16,22-tetraazacyclotetracosan-2,5,8,11,14,17,20,23-octaone]: the minimal effective concentration was 0.0001 to 0.001 µM in assay [1] and 10 to 100 µM in assay [2].
